Assay results taken from patent US11370794B2, “Toll-like receptor antagonist compounds and methods of use” (Dynavax Technologies Corporation, priority 2016, dated 2022).

Assays:
TLR-5 = biological target: T1, TLR-5 (Homo sapiens, UniProt O60602); experiment: Receptor specificity in primary human leukocytes: TLR-5; type: cell-based
T1 construct: related toll-like receptor family members and other nucleic acid intracellular signaling receptors in primary human leukocytes; endogenous in cells; host or cells: primary human leukocytes
Procedure: (§1) Example B5—Receptor Specificity
(§2) Representative compounds were tested for antagonist activity against related toll-like receptor family members and other nucleic acid intracellular signaling receptors in primary human leukocytes. The compounds were Compound Nos. 5 and 9, and they were tested for their ability to inhibit human RIG-I, TLR-2, TLR-4, and TLR-5. With one exception, neither compound was able to inhibit these receptors greater than 50% at 10 μM.

human RIG-I = biological target: T2, human RIG-I (Homo sapiens, UniProt O95786); experiment: Receptor specificity in primary human leukocytes: RIG-I; type: cell-based
T2 construct: other nucleic acid intracellular signaling receptors in primary human leukocytes; endogenous in cells; host or cells: primary human leukocytes
T2 sequence (O95786 1-925): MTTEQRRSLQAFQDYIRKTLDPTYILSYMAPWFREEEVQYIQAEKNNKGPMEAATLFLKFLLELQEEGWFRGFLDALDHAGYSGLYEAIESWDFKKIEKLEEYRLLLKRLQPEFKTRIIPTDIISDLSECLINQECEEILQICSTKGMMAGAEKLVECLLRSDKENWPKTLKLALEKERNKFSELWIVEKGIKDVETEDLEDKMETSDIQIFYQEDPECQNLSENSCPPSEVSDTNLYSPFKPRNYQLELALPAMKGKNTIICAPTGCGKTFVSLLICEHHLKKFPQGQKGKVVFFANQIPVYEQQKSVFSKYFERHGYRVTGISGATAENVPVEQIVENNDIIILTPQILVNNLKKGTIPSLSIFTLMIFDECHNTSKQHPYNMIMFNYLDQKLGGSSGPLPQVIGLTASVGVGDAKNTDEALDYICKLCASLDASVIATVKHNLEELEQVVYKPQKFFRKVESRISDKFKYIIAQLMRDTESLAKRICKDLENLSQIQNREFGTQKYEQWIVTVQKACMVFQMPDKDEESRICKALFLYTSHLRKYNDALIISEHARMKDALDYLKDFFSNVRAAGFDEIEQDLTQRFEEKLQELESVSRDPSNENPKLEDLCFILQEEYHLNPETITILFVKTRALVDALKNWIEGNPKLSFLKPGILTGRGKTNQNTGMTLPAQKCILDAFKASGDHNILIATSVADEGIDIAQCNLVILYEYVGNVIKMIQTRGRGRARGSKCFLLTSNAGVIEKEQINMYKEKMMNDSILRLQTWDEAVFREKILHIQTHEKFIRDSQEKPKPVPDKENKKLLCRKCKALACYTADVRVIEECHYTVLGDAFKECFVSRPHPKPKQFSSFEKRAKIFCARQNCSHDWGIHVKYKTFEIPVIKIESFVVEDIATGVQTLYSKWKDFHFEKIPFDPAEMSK
Procedure: as §1, §2

mouse TLR9 = biological target: T3, mouse TLR9 (Mus musculus, UniProt Q9EQU3); experiment: Inhibition of mouse TLR9 in mouse acute challenge model over time (serum IL-12); type: in vivo; details: 5 mg/Kg intra-peritoneal, serum IL-12 two, four and twenty-four hours after agonist
T3 construct: Balb/c mice (Charles River); host or cells: Balb/c mice, in vivo
T3 sequence (Q9EQU3 26-1032): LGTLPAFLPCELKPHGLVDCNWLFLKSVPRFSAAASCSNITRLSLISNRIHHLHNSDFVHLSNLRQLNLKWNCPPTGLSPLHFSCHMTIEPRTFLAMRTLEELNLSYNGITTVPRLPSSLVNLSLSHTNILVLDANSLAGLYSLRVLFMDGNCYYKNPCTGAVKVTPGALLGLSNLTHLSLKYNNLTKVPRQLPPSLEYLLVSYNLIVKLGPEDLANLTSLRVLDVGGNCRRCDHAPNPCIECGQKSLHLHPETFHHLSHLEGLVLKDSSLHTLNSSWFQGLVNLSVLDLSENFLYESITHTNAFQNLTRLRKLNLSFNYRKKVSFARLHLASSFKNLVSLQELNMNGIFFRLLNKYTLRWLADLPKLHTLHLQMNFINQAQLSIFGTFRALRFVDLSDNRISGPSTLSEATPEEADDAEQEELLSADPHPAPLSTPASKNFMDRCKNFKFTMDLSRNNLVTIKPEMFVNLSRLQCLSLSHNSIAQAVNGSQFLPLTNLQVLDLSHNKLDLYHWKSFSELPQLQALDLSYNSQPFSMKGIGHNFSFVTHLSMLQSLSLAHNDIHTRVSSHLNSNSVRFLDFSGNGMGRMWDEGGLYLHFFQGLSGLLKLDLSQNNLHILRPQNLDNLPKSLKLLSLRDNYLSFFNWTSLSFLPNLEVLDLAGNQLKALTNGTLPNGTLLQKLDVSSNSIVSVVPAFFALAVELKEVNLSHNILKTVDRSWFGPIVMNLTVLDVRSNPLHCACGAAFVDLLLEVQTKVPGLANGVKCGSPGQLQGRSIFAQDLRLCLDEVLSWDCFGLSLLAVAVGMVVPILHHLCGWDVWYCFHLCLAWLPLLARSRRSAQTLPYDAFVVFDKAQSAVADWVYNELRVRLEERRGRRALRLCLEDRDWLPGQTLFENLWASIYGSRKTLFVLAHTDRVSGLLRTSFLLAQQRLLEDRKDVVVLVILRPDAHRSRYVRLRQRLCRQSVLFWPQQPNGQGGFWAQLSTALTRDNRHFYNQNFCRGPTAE
Procedure: Example B4-a—Inhibition of Mouse TLR9 in Mouse Acute Challenge Model Over Time
When administered a CpG-containing DNA oligonucleotide, mice respond in an acute manner with release of cytokines into the peripheral blood within 6 hours. The addition of an inhibitor against TLR9 will attenuate the response to the DNA oligonucleotide agonist, which can be measured through a reduction in serum cytokines.
Balb/c mice (Charles River). TLR9 agonist 1018 ISS, CpG-containing DNA oligonucleotide. Mouse interleukin (IL)-12p40 ELISA kit (BD Pharmingen Cat. No. 551219 and 554476).
Mice were injected by the intra-peritoneal dosing route with test compound at 5 mg/kg. Following injection of test compound, mice were injected with a TLR9 agonist (a CpG-containing DNA oligonucleotide) by the intra-peritoneal route to a final dose of approximately 2.5 mg/kg. Two, four and twenty-four hours following administration of the DNA oligonucleotide, blood was collected from mice and processed to serum. The serum was tested for the presence of IL-12 using an ELISA kit. The amount of IL-12 produced is a reflection of the amount of TLR9-dependent receptor activity.

TLR-2 = biological target: T4, TLR-2 (Homo sapiens, UniProt O60603); experiment: Receptor specificity in primary human leukocytes: TLR-2; type: cell-based
T4 construct: related toll-like receptor family members and other nucleic acid intracellular signaling receptors in primary human leukocytes; endogenous in cells; host or cells: primary human leukocytes
Procedure: as §1, §2

TLR-4 = biological target: T5, TLR-4 (Homo sapiens, UniProt O00206+Q9Y6Y9); experiment: Receptor specificity in primary human leukocytes: TLR-4; type: cell-based
T5 construct: related toll-like receptor family members and other nucleic acid intracellular signaling receptors in primary human leukocytes; endogenous in cells; host or cells: primary human leukocytes
Procedure: as §1, §2

T1 sequence (O60602 21-858): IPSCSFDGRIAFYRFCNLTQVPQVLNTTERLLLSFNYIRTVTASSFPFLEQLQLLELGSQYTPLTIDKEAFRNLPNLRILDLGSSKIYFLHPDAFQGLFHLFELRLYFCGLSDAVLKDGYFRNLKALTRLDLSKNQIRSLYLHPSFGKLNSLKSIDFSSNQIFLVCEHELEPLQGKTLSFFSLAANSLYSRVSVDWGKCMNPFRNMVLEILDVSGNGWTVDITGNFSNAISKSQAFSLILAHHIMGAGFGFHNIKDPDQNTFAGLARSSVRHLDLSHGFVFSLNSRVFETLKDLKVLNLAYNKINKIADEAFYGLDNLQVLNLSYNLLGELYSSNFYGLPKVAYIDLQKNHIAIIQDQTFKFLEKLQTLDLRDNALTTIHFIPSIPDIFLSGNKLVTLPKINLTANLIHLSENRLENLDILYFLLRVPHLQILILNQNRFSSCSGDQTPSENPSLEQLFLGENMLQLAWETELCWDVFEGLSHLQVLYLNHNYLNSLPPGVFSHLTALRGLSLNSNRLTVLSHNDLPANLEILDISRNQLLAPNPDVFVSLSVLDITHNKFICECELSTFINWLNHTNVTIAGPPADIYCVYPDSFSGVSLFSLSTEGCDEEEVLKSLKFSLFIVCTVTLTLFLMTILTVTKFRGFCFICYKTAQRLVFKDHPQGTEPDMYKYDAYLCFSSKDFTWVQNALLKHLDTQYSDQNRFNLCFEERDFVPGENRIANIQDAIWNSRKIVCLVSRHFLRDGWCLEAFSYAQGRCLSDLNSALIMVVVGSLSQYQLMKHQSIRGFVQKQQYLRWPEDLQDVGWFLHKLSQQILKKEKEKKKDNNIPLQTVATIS
T4 sequence (O60603 21-784): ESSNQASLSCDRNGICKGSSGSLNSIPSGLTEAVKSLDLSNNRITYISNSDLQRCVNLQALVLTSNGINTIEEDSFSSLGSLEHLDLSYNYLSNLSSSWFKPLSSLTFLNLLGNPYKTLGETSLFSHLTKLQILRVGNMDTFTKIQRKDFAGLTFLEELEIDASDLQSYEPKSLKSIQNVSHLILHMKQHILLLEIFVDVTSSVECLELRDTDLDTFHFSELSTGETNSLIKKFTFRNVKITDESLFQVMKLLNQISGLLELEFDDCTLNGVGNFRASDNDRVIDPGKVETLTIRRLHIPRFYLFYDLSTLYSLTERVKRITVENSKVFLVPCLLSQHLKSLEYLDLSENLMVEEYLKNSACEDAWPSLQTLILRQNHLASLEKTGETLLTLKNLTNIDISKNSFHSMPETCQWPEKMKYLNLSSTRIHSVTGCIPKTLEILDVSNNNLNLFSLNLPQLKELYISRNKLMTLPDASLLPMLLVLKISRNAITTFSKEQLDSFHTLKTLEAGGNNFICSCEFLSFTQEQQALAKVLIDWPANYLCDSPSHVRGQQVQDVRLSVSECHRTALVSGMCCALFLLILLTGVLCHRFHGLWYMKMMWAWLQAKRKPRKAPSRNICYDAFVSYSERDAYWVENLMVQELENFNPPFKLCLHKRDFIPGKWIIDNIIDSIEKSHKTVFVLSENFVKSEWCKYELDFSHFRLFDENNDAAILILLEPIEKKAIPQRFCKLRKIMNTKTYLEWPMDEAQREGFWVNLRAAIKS
T5 sequence (O00206 24-839): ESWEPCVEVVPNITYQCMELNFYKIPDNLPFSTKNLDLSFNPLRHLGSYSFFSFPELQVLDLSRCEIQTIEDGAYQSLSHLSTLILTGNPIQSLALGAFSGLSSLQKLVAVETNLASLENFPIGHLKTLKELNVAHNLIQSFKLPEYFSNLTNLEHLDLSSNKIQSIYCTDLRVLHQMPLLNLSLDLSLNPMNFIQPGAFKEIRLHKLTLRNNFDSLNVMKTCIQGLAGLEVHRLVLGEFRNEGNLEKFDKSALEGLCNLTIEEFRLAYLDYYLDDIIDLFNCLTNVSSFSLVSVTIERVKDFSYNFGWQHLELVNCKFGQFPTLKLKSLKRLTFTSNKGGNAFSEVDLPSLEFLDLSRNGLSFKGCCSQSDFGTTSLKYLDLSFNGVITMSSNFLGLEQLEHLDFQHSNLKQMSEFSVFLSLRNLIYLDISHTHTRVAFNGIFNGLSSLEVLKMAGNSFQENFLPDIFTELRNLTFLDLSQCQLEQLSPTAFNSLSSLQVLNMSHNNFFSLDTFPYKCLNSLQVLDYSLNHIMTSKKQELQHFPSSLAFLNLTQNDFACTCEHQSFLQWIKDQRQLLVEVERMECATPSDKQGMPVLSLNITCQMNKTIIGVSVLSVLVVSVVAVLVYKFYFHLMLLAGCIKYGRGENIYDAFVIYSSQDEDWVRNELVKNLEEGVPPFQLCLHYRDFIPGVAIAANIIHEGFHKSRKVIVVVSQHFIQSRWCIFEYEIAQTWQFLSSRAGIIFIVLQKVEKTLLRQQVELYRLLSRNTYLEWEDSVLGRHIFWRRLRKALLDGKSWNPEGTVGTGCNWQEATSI
T5 sequence (Q9Y6Y9 17-160 limits assumed): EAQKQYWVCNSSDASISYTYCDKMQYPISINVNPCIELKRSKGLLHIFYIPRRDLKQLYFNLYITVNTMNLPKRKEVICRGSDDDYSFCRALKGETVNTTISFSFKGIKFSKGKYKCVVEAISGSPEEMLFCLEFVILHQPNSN

For Cc1ccc(-n2nc3c(N4CCC(C(=O)NCCCN(C)C)CC4)nnc(C)c3c2C)cc1 [Compound No. 5, 1-(3,4-dimethyl-2-(p-tolyl)-2H-pyrazolo[3,4-d]pyridazin-7-yl)-N-(3-(dimethylamino)propyl)piperidine-4-carboxamide], the inhibition at 10 µM (TLR-5) was ≤ 50%, the inhibition at 10 µM (human RIG-I; at 10 μM) was ≤ 50% and the “inhibition of TLR9 activity in mice over time (FIG. 2)” value (mouse TLR9) was “inhibition of TLR9 activity”. For the same compound, the inhibition at 10 µM (TLR-2) was ≤ 50% and the inhibition at 10 µM (TLR-4) was ≤ 50%.

For Cc1ccc(-n2nc3c(N4CCC(CCC(=O)NCCN(C)C)CC4)nnc(C)c3c2C)cc1 [Compound No. 9, 3-(1-(3,4-dimethyl-2-(p-tolyl)-2H-pyrazolo[3,4-d]pyridazin-7-yl)piperidin-4-yl)-N-(2-(dimethylamino)ethyl)propanamide], the inhibition at 10 µM (TLR-5) was ≤ 50%, the IC50 (human RIG-I; read-out: IC50 against RIG-I) was 8.3 µM and the inhibition at 10 µM (TLR-2) was ≤ 50%. For the same compound, the inhibition at 10 µM (TLR-4) was ≤ 50%.
